Measurements from patent US20180153203A1, “(5R)-(ß-D-GLUCOPYRANOSYLOXY)-1,5-DIHYDRO-2H-PYRROL-2-ONE AS UMAMI MOLECULE” (priority 2015, published 2018).
Like-named read-outs stand apart in the source and are kept apart here.

Columns and labels:
[1] = tested on: sensory panel of 5 to 8 trained persons; settings: comparison value for MSG, no source or test given; cited from earlier work
[2] = tested on: sensory panel of 5 to 8 trained persons; assay: Sensory panel tasting of umami intensity in water; assay type: in vivo, human; settings: for Intense umami / No umami / Umami: water, count of tasters on 3-point umami scale; for threshold (umami) / threshold (umami), preferably: in water
Experimental: (§1) The sensory tests were performed in a sensory panel room at 20-25° C. The sensory panel consisted of 5 to 8 trained persons. The technical tasting was measured versus a control sample. Tasters were asked to judge the different products according to umami intensity on a 3-point scale (no umami, umami and intense umami). Additionally the tasters were asked to objectively describe the prototype with comments.
The stereoisomers have been tested to umami intensity as described in example 7.

[3] = tested on: sensory panel; assay: Sensory panel tasting of tomato soups; assay type: in vivo, human; settings: tomato soup
Experimental: (5R)-(β-D-glucopyranosyloxy)-1,5-dihydro-2H-pyrrol-2-one was added at 500 mg/L (500 ppm) to the soups.

[4] = tested on: sensory panel of 5 to 8 trained persons; assay: Sensory panel tasting in 0.2% sodium chloride and 0.04% sugar and 0.08% MSG; assay type: in vivo, human; settings: 0.2% sodium chloride, count of tasters
Experimental: as §1

[5] = tested on: sensory panel of 5 to 8 trained persons; assay: Sensory panel tasting in 0.2% sodium chloride and 0.04% sugar; assay type: in vivo, human; settings: for Intense umami / No umami / Umami: 0.2% sodium chloride and 0.04% sugar, count of tasters
Experimental: as §1

[6] = tested on: sensory panel of 5 to 8 trained persons; assay: Sensory panel tasting in 0.2% sodium chloride and 0.04% sugar and 0.015% IMP + GMP; assay type: in vivo, human; settings: 0.2% sodium chloride, count of tasters
Experimental: as §1

In the case of N[C@@H](CCC(=O)O)C(=O)[O-].[Na+] [Monosodium glutamat], the “threshold (umami)” value [1] is given as 1500 µmol/L.
Compound O=C1C=C[C@H](O[C@H]2O[C@H](CO)[C@@H](O)[C@H](O)[C@H]2O)N1 [alpha-S, (5S)-(α-D-glucopyranosyloxy)-1,5-dihydro-2H-pyrrol-2-one] has an Intense umami ([2]; C 100 mg/l) of 0, a No umami ([2]; C 100 mg/l) of 5 and a Umami ([2]; C 100 mg/l) of 0. It also gave an Intense umami ([2]; C 250 mg/l) of 0, a No umami ([2]; C 250 mg/l) of 4 and a Umami ([2]; C 250 mg/l) of 1. For the same compound, the Intense umami ([2]; C 500 mg/l) was 0, the No umami ([2]; C 500 mg/l) was 5 and the Umami ([2]; C 500 mg/l) was 0.
For “(5R)-(β-D-glucopyranosyloxy)-1,5-dihydro-2H-pyrrol-2-one”, the “tomato soups with and without the compound, perceived difference” value ([3]; 500 mg/L (500 ppm)) was “perceived as significantly different”, the “savory, umami taste of tomato soups” value ([3]; 500 ppm) was “increased significantly” and the Intense umami ([4]; C 200 mg/l) was 5. For the same compound, the No umami ([4]; C 200 mg/l) was 0, the Umami ([4]; C 200 mg/l) was 1 and the Intense umami ([4]; C 500 mg/l) was 3. The No umami ([4]; C 500 mg/l) was 0, the Umami ([4]; C 500 mg/l) was 3 and the Intense umami ([5]; C 200 mg/l) was 0. For the same compound, the No umami ([5]; C 200 mg/l) was 3, the Umami ([5]; C 200 mg/l) was 4 and the Intense umami ([5]; C 500 mg/l) was 2. For the same compound, the No umami ([5]; C 500 mg/l) was 2, the Umami ([5]; C 500 mg/l) was 3 and the umami enhancing property ([5]; conclusion from Table 2, table 3 and table 4 (salt/sugar base, with MSG, with IMP + GMP)) was “shows the umami enhancing property”. It also gave an Intense umami ([6]; C 200 mg/l) of 0, a No umami ([6]; C 200 mg/l) of 4 and a Umami ([6]; C 200 mg/l) of 3. It also gave an Intense umami ([6]; C 500 mg/l) of 0, a No umami ([6]; C 500 mg/l) of 3 and a Umami ([6]; C 500 mg/l) of 4. The “threshold (umami)” value ([2]; corresponding to 250 mg/l) was 957 µmol/L, the “threshold (umami), preferably” value ([2]; corresponding to 500 mg/l) was 1914 µmol/L and the “threshold (umami)” value ([2]; from Table 1) was 250 mg/L. For the same compound, the “threshold (umami), preferably” value ([2]; from Table 1, 'preferably') was 500 mg/L, the Intense umami ([2]; C 100 mg/l) was 0 and the No umami ([2]; C 100 mg/l) was 5. The Umami ([2]; C 100 mg/l) was 3, the Intense umami ([2]; C 250 mg/l) was 1 and the No umami ([2]; C 250 mg/l) was 3. It also gave a Umami ([2]; C 250 mg/l) of 4, an Intense umami ([2]; C 500 mg/l) of 1 and a No umami ([2]; C 500 mg/l) of 1. For the same compound, the Umami ([2]; C 500 mg/l) was 6.
Compound O=C1C=C[C@H](O[C@@H]2O[C@H](CO)[C@@H](O)[C@H](O)[C@H]2O)N1 [beta-S, (5S)-(β-D-glucopyranosyloxy)-1,5-dihydro-2H-pyrrol-2-one] has an Intense umami ([2]; C 100 mg/l) of 0, a No umami ([2]; C 100 mg/l) of 5 and a Umami ([2]; C 100 mg/l) of 0. It also gave an Intense umami ([2]; C 200 mg/l) of 0, a No umami ([2]; C 200 mg/l) of 5 and a Umami ([2]; C 200 mg/l) of 0. It also gave an Intense umami ([2]; C 500 mg/l) of 0, a No umami ([2]; C 500 mg/l) of 4 and a Umami ([2]; C 500 mg/l) of 1.
O=C1C=C[C@@H](O[C@H]2O[C@H](CO)[C@@H](O)[C@H](O)[C@H]2O)N1 [alpha-R, (5R)-(α-D-glucopyranosyloxy)-1,5-dihydro-2H-pyrrol-2-one] showed an Intense umami ([2]; C 200 mg/l) of 0, a No umami ([2]; C 200 mg/l) of 5 and a Umami ([2]; C 200 mg/l) of 0. It also gave an Intense umami ([2]; C 400 mg/l) of 0, a No umami ([2]; C 400 mg/l) of 5 and a Umami ([2]; C 400 mg/l) of 0. The Intense umami ([2]; C 800 mg/l) was 0, the No umami ([2]; C 800 mg/l) was 5 and the Umami ([2]; C 800 mg/l) was 0.
